Test results published in patent US20250136606A1, “MODULATORS OF TRPML, THEIR COMPOSITIONS AND METHODS OF USE” (Caraway Therapeutics, Inc., priority 2021, published 2025).
Read-outs that look alike come from different tables or passages of the source.

What was measured:
Assay type in all cases: cell-based
[1] = target: T1, TRPML2 (Homo sapiens, UniProt Q8IZK6); assay: Fluorescent TRPML2 assay (performed as for TRPML1, substituting the TRPML2 subtype)
T1 construct: expressed in transfected cells
T1 sequence (Q8IZK6 1-566): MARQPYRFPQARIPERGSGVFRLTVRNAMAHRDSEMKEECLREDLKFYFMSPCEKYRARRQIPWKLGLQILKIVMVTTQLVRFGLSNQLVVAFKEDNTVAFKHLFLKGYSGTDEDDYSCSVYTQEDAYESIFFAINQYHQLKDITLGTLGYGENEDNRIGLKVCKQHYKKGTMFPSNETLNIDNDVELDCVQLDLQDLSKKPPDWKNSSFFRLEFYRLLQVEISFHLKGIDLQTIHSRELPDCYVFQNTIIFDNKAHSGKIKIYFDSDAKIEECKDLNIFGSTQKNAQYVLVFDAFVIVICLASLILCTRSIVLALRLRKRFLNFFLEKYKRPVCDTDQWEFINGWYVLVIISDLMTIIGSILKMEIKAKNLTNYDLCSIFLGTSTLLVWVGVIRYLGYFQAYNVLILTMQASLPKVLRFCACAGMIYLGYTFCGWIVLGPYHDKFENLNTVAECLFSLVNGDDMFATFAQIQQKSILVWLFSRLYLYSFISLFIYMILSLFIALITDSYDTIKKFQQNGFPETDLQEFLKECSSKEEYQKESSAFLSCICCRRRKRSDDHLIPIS
Method in brief: (§1)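 HEK-293 Trex, dox-induced (0.5 ug/mL), mutated for surface expression. Fluo4-AM 1 micromolar load ~60 min, dark; buffer modified Ringer's, 10 mM Ca. Cpds 20 micromolar–6 nanomolar final, half-log, n=3. Read ex 480/em 540; % activity vs controls; EC50 nonlinear fit.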

[2] = target: T2, TRPML3 (Homo sapiens, UniProt Q8TDD5); assay: Fluorescent TRPML3 assay (performed as for TRPML1, substituting the TRPML3 subtype)
T2 construct: expressed in transfected cells
T2 sequence (Q8TDD5 1-553): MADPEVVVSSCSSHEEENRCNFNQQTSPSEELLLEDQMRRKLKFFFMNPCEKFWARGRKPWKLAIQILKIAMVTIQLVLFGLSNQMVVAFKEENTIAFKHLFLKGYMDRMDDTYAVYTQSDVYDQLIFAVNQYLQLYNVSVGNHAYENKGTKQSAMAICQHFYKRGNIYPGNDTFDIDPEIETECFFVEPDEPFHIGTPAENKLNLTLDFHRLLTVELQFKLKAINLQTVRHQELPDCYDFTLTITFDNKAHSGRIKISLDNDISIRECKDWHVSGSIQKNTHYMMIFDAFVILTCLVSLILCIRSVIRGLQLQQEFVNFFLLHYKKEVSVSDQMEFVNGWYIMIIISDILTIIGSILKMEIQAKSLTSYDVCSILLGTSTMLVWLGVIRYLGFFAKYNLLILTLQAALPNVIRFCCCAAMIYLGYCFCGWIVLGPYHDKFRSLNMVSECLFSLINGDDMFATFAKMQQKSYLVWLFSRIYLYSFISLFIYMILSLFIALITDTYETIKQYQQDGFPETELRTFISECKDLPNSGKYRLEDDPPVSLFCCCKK
Method in brief: as §1

[3] = target: TRPML1 (Homo sapiens, UniProt Q9GZU1); assay: Fluorescent TRPML1 assay (Fluo4-AM calcium fluorescence in doxycycline-induced HEK-293 Trex cells)
Chain of TRPML1 (Q9GZU1 whole entry L15A/L16A/L577A/L578A, form open): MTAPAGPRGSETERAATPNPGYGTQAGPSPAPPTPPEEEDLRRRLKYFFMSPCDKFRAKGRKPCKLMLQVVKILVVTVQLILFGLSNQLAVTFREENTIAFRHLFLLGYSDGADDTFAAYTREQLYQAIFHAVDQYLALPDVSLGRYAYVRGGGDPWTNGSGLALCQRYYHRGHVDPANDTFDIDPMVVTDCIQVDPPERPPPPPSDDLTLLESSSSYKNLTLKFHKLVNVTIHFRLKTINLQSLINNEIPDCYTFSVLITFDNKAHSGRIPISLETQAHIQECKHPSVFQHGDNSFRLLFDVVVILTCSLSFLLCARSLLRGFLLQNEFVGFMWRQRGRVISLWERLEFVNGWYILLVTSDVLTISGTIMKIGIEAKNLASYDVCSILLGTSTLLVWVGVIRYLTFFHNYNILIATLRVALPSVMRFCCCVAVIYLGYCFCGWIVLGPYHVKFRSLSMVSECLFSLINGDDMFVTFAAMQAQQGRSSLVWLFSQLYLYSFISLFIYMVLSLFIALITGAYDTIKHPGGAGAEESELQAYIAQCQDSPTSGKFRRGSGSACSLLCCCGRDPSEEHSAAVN
Method in brief: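 HEK-293 Trex cells stably carrying human TRPML1 (surface-trafficking mutant) were induced overnight with 0.5 ug/mL doxycycline, loaded with 1 micromolar Fluo4-AM, and suspended in Ringer's with 10 mM calcium. Compounds at 20 micromolar to 6 nanomolar final, half-log steps, triplicate; fluorescence 480/540 nm gave percent activity versus controls and EC50 by non-linear regression.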

Structure (SMILES)	EC50 ([1]; fluorescent calcium assay) [nM]	EC50 ([2]; fluorescent calcium assay) [nM]	EC50 ([3]; fluorescent calcium assay) [nM]	EC50 [1] [nM]	EC50 [2] [nM]	EC50 [3] [nM]
C[C@@H]1CN(c2ncnc3c2c(-c2ccccn2)cn3-c2cc(F)cc(F)c2)CCN1C(=O)OC(C)(C)C [Compound 215, tert-butyl (R)-4-(7-(3,5-difluorophenyl)-5-(pyridin-2-yl)-7H-pyrrolo[2,3-d]pyrimidin-4-yl)-2-methylpiperazine-1-carboxylate]	500 to 2000	100 to 500	100 to 500	–	–	–
C[C@H]1CN(C(=O)OC(C)(C)C)CCN1c1ncnc2c1c(C1CC1)cn2C1CCCCC1 [Compound 326, tert-butyl (S)-4-(7-cyclohexyl-5-cyclopropyl-7H-pyrrolo[2,3-d]pyrimidin-4-yl)-3-methylpiperazine-1-carboxylate]	> 2000	< 100	100 to 500	–	–	–
C[C@H]1CN(C(=O)OC(C)(C)C)CCN1c1ncnc2c1c(-c1cccnc1)cn2-c1ccc(F)c(Cl)c1 [Compound 212, tert-butyl (S)-4-(7-(3-chloro-4-fluorophenyl)-5-(pyridin-3-yl)-7H-pyrrolo[2,3-d]pyrimidin-4-yl)-3-methylpiperazine-1-carboxylate]	100 to 500	< 100	< 100	–	–	–
C[C@@H]1CN(c2ncnc3c2c(-c2ccccc2F)cn3-c2cnn(C)c2)[C@@H](C)CN1C(=O)OCC(F)(F)F [Compound 254, 2,2,2-trifluoroethyl (2R,5S)-4-(5-(2-fluorophenyl)-7-(1-methyl-1H-pyrazol-4-yl)-7H-pyrrolo[2,3-d]pyrimidin-4-yl)-2,5-dimethylpiperazine-1-carboxylate]	> 2000	100 to 500	100 to 500	–	–	–
COc1cc(OC(F)(F)F)cc(-n2cc(C3CC3)c3c(N4CCN(C(=O)OC(C)(C)C)C[C@@H]4C)ncnc32)c1 [Compound 264, tert-butyl (S)-4-(5-cyclopropyl-7-(3-methoxy-5-(trifluoromethoxy)phenyl)-7H-pyrrolo[2,3-d]pyrimidin-4-yl)-3-methylpiperazine-1-carboxylate]	500 to 2000	100 to 500	100 to 500	–	–	–
Cc1cn(-c2cncc(F)c2)c2ncnc(N3CCN(C(=O)OC(C)(C)C)C[C@@H]3C)c12 [Compound 689, tert-butyl (S)-4-(7-(5-fluoropyridin-3-yl)-5-methyl-7H-pyrrolo[2,3-d]pyrimidin-4-yl)-3-methylpiperazine-1-carboxylate]	–	–	–	100 to 500	100 to 500	< 100
C[C@H]1CN(C(=O)OC2(C)CC2)CCN1c1ncnc2c1c(C(F)(F)F)cn2-c1cccc(Cl)c1 [Compound 660, 1-methylcyclopropyl (S)-4-(7-(3-chlorophenyl)-5-(trifluoromethyl)-7H-pyrrolo[2,3-d]pyrimidin-4-yl)-3-methylpiperazine-1-carboxylate]	–	–	–	500 to 2000	100 to 500	100 to 500
C[C@H]1CN(C(=O)OC(C)(C)C(F)(F)F)CCN1c1ncnc2c1c(C1CCC1)cn2-c1cc(C#N)ccn1 [Compound 436, 1,1,1-trifluoro-2-methylpropan-2-yl(S)-4-(7-(4-cyanopyridin-2-yl)-5-cyclobutyl-7H-pyrrolo[2,3-d]pyrimidin-4-yl)-3-methylpiperazine-1-carboxylate]	100 to 500	< 100	< 100	–	–	–
C[C@@H]1CN(c2ncnc3c2c(C(F)F)cn3-c2cc(C#N)ccn2)[C@@H](C)CN1C(=O)OC1(C)CCC1 [Compound 605, 1-methylcyclobutyl (2R,5S)-4-(7-(4-cyanopyridin-2-yl)-5-(difluoromethyl)-7H-pyrrolo[2,3-d]pyrimidin-4-yl)-2,5-dimethylpiperazine-1-carboxylate]	–	–	–	100 to 500	< 100	< 100
Cc1nccnc1-c1cn(-c2cccc(Cl)c2)c2ncnc(N3CCN(C(=O)OC(C)(C)C)CC3C)c12 (stereo not drawn) [Compound 161, tert-butyl 4-(7-(3-chlorophenyl)-5-(3-methylpyrazin-2-yl)-7H-pyrrolo[2,3-d]pyrimidin-4-yl)-3-methylpiperazine-1-carboxylate]	500 to 2000	100 to 500	100 to 500	–	–	–
C[C@H]1CN(C(=O)OC(C)(C)C)CCN1c1nccc2c1c(-c1ccccc1F)cn2-c1cccc(F)c1 [Compound 703, tert-butyl (S)-4-(3-(2-fluorophenyl)-1-(3-fluorophenyl)-1H-pyrrolo[3,2-c]pyridin-4-yl)-3-methylpiperazine-1-carboxylate]	–	–	–	< 100	< 100	< 100
C[C@@H]1CN(c2nccc3c2c(C(F)F)cn3-c2cc(C#N)ccn2)[C@@H](C)CN1C(=O)OC(C)(C)C [Compound 624, tert-butyl (2R,5S)-4-(1-(4-cyanopyridin-2-yl)-3-(difluoromethyl)-1H-pyrrolo[3,2-c]pyridin-4-yl)-2,5-dimethylpiperazine-1-carboxylate]	–	–	–	> 2000	100 to 500	100 to 500
C#Cc1ccnc(-n2cc(C(F)(F)F)c3c(N4C[C@@H](C)N(C(=O)OC(C)(C)C)C[C@@H]4C)ncnc32)c1 [Compound 716, tert-butyl (2R,5S)-4-(7-(4-ethynylpyridin-2-yl)-5-(trifluoromethyl)-7H-pyrrolo[2,3-d]pyrimidin-4-yl)-2,5-dimethylpiperazine-1-carboxylate]	–	–	–	500 to 2000	100 to 500	100 to 500
CC(C)(C)OC(=O)N1CCN(c2ncnc3c2c(C2CC2)cn3-c2cc(F)cc(F)c2)CC1 [Compound 146, tert-butyl 4-(5-cyclopropyl-7-(3,5-difluorophenyl)-7H-pyrrolo[2,3-d]pyrimidin-4-yl)piperazine-1-carboxylate]	100 to 500	< 100	100 to 500	–	–	–
CC(C)(C)OC(=O)N1CCN(c2ncnc3c2c(N2CCCC2)cn3-c2cc(C#N)ccn2)C(C)(C)C1 [Compound 601, tert-butyl 4-(7-(4-cyanopyridin-2-yl)-5-(pyrrolidin-1-yl)-7H-pyrrolo[2,3-d]pyrimidin-4-yl)-3,3-dimethylpiperazine-1-carboxylate]	–	–	–	100 to 500	< 100	< 100
C[C@H]1CN(C(=O)OC(C)(C)C)CCN1c1ncnc2c1c(C1CC1)nn2-c1cc(C#N)ccn1 [Compound 343]	> 2000	100 to 500	500 to 2000	–	–	–
C[C@@H]1CN(c2ncnc3c2c(C(F)(F)F)cn3-c2cc(C(F)(F)F)ccn2)[C@@H](C)CN1C(=O)OC(C)(C)C [Compound 536, tert-butyl (2R,5S)-2,5-dimethyl-4-(5-(trifluoromethyl)-7-(4-(trifluoromethyl)pyridin-2-yl)-7H-pyrrolo[2,3-d]pyrimidin-4-yl)piperazine-1-carboxylate]	–	–	–	< 100	< 100	< 100
C[C@@H]1CN(c2ncnc3c2c(-c2ccccc2F)cn3-c2cccnc2)[C@@H](C)CN1C(=O)OC(C)(C)C [Compound 142, tert-butyl (2R,5S)-4-(5-(2-fluorophenyl)-7-(pyridin-3-yl)-7H-pyrrolo[2,3-d]pyrimidin-4-yl)-2,5-dimethylpiperazine-1-carboxylate]	500 to 2000	< 100	< 100	–	–	–
C[C@H]1CN(C(=O)OC(C)(C)C)CCN1c1ncnc2c1c(C1CC1)cn2C1CCOCC1 [Compound 340, tert-butyl (S)-4-(5-cyclopropyl-7-(tetrahydro-2H-pyran-4-yl)-7H-pyrrolo[2,3-d]pyrimidin-4-yl)-3-methylpiperazine-1-carboxylate]	> 2000	100 to 500	500 to 2000	–	–	–
